# Tests used:
# Assay in all cases: Post-emergence herbicidal activity test (stem and leaf spray, pot culture)
# Assay type in all cases: in vivo
# Conditions in all cases: 3 weeks after spraying
# Setaria viridis = test system: Setaria viridis
# How it was run: (§1)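 Seeds soaked 6 h at 25 °C, germinated at 28 °C, sown in loam pots and thinned to 10 plants/pot. At 2–3 leaves, plants received a single spray-tower application of 10, 5 or 2.5 g/mu. Fresh-weight control was graded 0–5 after 3 weeks.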
# Echinochloa crusgalli = test system: Echinochloa crusgalli
# How it was run: as §1
# Abutilon theophrasti = test system: Abutilon theophrasti
# How it was run: as §1
# Portulaca oleracea = test system: Portulaca oleracea
# How it was run: as §1
# Amaranthus retroflexus = test system: Amaranthus retroflexus
# How it was run: as §1
# Trifoliumre pensL. = test system: Trifoliumre pensL.
# How it was run: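 Pot-grown weeds in loam (pH 7), greenhouse at 20–30 °C, sprayed once post-emergence at the 2–3-leaf stage. Compound in acetone with Tween 80 plus methyl oleate oil (1.5 L/ha), applied at 10, 5 and 2.5 g/mu by spray tower. Effect scored 3 weeks after spraying, averaged over three repeats.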
smiles,measurement,setting,value
O=C1C2=C(CCCC2)C(=O)N1c1cc(OCc2nc(-c3c(F)cccc3F)no2)c(Cl)cc1F [Compound A24],"Post-emergence herbicidal activity, S. viridis (grade)",Setaria viridis; dosage 2.5 g/mu,2 (Grade 2: the growth control rate is greater than or equal to 20% and less than 40%)
same,"Post-emergence herbicidal activity, S. viridis (grade)",Setaria viridis; dosage 5 g/mu,3 (Grade 3: the growth control rate is greater than or equal to 40% and less than 60%)
same,"Post-emergence herbicidal activity, S. viridis (grade)",Setaria viridis; dosage 10 g/mu,4 (Grade 4: the growth control rate is greater than or equal to 60% and less than 85%)
same,"Post-emergence herbicidal activity, E. crusgalli (grade)",Echinochloa crusgalli; dosage 2.5 g/mu,1 (Grade 1: the growth control rate is greater than or equal to 5% and less than 20%)
same,"Post-emergence herbicidal activity, E. crusgalli (grade)",Echinochloa crusgalli; dosage 5 g/mu,2 (Grade 2: the growth control rate is greater than or equal to 20% and less than 40%)
same,"Post-emergence herbicidal activity, E. crusgalli (grade)",Echinochloa crusgalli; dosage 10 g/mu,3 (Grade 3: the growth control rate is greater than or equal to 40% and less than 60%)
same,"Post-emergence herbicidal activity, A. theophrasti (grade)",Abutilon theophrasti; dosage 2.5 g/mu,5 (Grade 5: the growth control rate is greater than or equal to 85%)
same,"Post-emergence herbicidal activity, A. theophrasti (grade)",Abutilon theophrasti; dosage 5 g/mu,5 (Grade 5: the growth control rate is greater than or equal to 85%)
same,"Post-emergence herbicidal activity, A. theophrasti (grade)",Abutilon theophrasti; dosage 10 g/mu,5 (Grade 5: the growth control rate is greater than or equal to 85%)
same,"Post-emergence herbicidal activity, P. oleracea (grade)",Portulaca oleracea; dosage 2.5 g/mu,4 (Grade 4: the growth control rate is greater than or equal to 60% and less than 85%)
same,"Post-emergence herbicidal activity, P. oleracea (grade)",Portulaca oleracea; dosage 5 g/mu,5 (Grade 5: the growth control rate is greater than or equal to 85%)
same,"Post-emergence herbicidal activity, P. oleracea (grade)",Portulaca oleracea; dosage 10 g/mu,5 (Grade 5: the growth control rate is greater than or equal to 85%)
same,"Post-emergence herbicidal activity, A. retroflexus (grade)",Amaranthus retroflexus; dosage 2.5 g/mu,5 (Grade 5: the growth control rate is greater than or equal to 85%)
same,"Post-emergence herbicidal activity, A. retroflexus (grade)",Amaranthus retroflexus; dosage 5 g/mu,5 (Grade 5: the growth control rate is greater than or equal to 85%)
same,"Post-emergence herbicidal activity, A. retroflexus (grade)",Amaranthus retroflexus; dosage 10 g/mu,5 (Grade 5: the growth control rate is greater than or equal to 85%)
same,"Post-emergence herbicidal activity, Trifoliumre pensL. (grade)",Trifoliumre pensL.; dosage 2.5 g/mu,4 (Grade 4: the growth control rate is greater than or equal to 60% and less than 85%)
same,"Post-emergence herbicidal activity, Trifoliumre pensL. (grade)",Trifoliumre pensL.; dosage 5 g/mu,5 (Grade 5: the growth control rate is greater than or equal to 85%)
same,"Post-emergence herbicidal activity, Trifoliumre pensL. (grade)",Trifoliumre pensL.; dosage 10 g/mu,5 (Grade 5: the growth control rate is greater than or equal to 85%)
